Experimental data: patent US12371428B2 (Exelixis, Inc., priority 2019, dated 2025)

Columns and labels:
[1] = target: Met (phospho-Met, HGF-stimulated PC-3 prostate cancer cells) (Homo sapiens (Human), UniProt P08581); experiment: Met autophosphorylation ELISA in PC-3 cells (Example F); format: cell-based; conditions: cellular activity; Met autophosphorylation ELISA in PC-3 cells; read-out: c-Met IC50
Procedure, shortened: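 Compounds were tested on HGF-stimulated PC-3 cells. After 24 h culture and 3 h serum starvation, cells got compound for 1 h and 100 ng/mL HGF for 10 min, and Met tyrosine phosphorylation was measured by ELISA.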

[2] = target: Human KDR (residues 790-1356) (Homo sapiens (Human), UniProt P35968); experiment: Human KDR kinase assay, HTRF KinEase (Example B-2); format: biochemical; conditions: protocol of Example B-2 (other compounds)
Procedure, shortened: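 Ten compound concentrations (3% DMSO final) were pre-plated, then KDR (790-1356) with biotinylated peptide in Mg/Mn/DTT buffer was added; ATP at Km (4.0 μM) started a 40 min room-temperature reaction. Detection used Eu-TK antibody and SA-XL665 in EDTA buffer; activity normalized to DMSO and reference inhibitor, IC50 by logistic fit.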

[3] = target: KDR (phospho-KDR, VEGF165-stimulated HUVEC cells) (Homo sapiens (Human), UniProt P35968); experiment: KDR autophosphorylation ELISA in HUVEC cells (Example G); format: cell-based; conditions: cellular activity; KDR autophosphorylation ELISA in HUVEC cells
Procedure, shortened: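 Read-out is phospho-KDR measured by ELISA in lysates of VEGF165-stimulated (100 ng/mL, 5 min) HUVEC that were serum-starved 24 h and then pre-exposed 1 h to compound across 8 doses in 0.3% DMSO. Unstimulated lysates defined 0% and stimulated vehicle lysates 100% activity; IC50 values come from 4-parameter logistic regression.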

Chain of Met (phospho-Met, HGF-stimulated PC-3 prostate cancer cells) (P08581 25-1390): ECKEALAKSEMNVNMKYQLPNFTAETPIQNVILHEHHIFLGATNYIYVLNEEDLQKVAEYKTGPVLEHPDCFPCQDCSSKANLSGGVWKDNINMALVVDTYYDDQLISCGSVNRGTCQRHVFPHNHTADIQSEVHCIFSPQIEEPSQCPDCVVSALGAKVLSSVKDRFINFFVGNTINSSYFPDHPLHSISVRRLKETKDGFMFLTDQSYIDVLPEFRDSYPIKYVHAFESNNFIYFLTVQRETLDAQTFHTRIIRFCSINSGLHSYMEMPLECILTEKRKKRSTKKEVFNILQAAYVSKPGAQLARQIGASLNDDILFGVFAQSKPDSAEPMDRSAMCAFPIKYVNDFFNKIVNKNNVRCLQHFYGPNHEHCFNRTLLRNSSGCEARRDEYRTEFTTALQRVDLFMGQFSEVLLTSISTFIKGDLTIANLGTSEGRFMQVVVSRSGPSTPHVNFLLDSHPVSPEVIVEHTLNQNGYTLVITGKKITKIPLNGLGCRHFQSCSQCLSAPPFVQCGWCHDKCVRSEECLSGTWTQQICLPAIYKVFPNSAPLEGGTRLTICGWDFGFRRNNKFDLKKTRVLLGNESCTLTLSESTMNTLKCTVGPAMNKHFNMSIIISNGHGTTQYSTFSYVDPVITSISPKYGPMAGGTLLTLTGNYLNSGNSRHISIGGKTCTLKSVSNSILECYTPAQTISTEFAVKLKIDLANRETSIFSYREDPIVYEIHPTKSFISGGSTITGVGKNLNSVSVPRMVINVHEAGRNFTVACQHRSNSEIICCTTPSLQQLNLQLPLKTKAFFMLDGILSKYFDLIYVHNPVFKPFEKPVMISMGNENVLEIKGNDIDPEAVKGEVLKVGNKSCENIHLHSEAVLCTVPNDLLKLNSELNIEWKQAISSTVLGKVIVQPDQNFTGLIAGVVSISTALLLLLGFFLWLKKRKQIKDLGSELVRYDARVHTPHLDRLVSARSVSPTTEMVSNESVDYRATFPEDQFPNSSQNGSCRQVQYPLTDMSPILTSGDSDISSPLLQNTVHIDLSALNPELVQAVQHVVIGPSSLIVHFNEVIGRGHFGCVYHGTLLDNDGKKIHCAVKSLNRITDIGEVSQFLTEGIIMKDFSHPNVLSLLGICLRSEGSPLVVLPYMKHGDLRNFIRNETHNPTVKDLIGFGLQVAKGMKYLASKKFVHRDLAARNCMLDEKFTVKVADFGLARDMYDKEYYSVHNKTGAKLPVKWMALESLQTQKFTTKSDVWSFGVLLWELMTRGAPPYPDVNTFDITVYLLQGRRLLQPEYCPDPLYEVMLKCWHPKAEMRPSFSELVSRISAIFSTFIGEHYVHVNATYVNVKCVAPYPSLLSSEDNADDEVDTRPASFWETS
Chain of KDR (phospho-KDR, VEGF165-stimulated HUVEC cells) (P35968 20-1356): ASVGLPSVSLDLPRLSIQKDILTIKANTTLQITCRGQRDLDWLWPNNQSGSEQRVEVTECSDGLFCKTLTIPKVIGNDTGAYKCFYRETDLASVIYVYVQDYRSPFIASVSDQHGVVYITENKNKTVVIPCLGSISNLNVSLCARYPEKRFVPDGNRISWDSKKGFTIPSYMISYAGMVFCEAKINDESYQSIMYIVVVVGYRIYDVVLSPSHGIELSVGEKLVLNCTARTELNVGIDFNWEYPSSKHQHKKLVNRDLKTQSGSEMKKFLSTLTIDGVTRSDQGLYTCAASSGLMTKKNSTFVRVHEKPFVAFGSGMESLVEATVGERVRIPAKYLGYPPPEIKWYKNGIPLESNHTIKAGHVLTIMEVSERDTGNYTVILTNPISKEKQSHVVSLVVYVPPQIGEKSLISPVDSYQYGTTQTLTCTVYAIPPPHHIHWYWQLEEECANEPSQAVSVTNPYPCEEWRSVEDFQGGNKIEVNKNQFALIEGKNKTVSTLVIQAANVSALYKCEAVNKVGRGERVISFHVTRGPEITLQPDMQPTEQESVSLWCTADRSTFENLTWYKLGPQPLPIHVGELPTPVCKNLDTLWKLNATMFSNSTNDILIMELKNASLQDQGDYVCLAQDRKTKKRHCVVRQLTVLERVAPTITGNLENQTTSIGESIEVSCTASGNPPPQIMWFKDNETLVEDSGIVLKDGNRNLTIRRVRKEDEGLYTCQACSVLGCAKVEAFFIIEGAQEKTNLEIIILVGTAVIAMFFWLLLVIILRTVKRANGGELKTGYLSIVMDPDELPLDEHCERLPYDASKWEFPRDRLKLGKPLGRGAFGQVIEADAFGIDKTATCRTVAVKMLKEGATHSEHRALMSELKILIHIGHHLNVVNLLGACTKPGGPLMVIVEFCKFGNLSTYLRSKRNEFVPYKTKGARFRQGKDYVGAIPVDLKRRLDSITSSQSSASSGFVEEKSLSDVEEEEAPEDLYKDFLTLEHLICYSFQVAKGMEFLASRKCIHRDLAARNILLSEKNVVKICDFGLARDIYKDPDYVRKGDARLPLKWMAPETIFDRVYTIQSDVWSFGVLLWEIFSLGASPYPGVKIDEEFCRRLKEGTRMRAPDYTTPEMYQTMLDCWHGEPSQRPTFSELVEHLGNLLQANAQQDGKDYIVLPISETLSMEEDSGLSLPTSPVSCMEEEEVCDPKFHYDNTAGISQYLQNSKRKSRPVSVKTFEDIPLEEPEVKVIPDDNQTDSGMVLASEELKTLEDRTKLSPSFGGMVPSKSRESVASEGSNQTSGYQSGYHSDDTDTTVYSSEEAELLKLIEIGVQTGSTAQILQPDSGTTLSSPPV
Chain of Human KDR (residues 790-1356) (P35968 790-1356): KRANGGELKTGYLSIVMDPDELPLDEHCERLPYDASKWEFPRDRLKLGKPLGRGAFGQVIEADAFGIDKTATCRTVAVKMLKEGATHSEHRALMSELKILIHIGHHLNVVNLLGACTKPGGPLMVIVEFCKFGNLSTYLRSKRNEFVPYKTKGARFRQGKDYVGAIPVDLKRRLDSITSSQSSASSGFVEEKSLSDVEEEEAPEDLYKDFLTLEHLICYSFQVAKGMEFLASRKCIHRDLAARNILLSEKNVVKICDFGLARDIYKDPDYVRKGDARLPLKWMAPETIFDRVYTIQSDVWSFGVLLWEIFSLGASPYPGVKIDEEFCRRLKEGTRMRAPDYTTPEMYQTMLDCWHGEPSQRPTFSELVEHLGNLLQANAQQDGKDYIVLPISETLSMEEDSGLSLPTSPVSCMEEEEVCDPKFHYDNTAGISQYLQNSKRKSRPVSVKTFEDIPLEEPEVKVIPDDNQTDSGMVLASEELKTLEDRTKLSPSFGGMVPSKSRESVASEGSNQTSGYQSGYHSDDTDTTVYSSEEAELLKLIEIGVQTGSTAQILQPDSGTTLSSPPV

| SMILES | IC50 [1] [nM] | IC50 [2] [nM] | IC50 [3] [nM] |
| --- | --- | --- | --- |
| COc1cc2nccc(Oc3ccc(NC(=O)c4cn(C5CC5)c(C)c(-c5ccc(F)cc5)c4=O)cc3F)c2nc1OC [Compound 433, 1-cyclopropyl-N-[4-[(6,7-dimethoxy-1,5-naphthyridin-4-yl)oxy]-3-fluorophenyl]-5-(4-fluorophenyl)-6-methyl-4-oxopyridine-3-carboxamide] | < 100 | > 300 | > 300 |
| COc1cc2nccc(Oc3ccc(NC(=O)c4cn(C(C)(C)C)cc(-c5ccc(F)cc5)c4=O)cc3F)c2nc1OC [Compound 48, 1-tert-Butyl-N-[4-[(6,7-dimethoxy-1,5-naphthyridin-4-yl)oxy]-3-fluorophenyl]-5-(4-fluorophenyl)-4-oxopyridine-3-carboxamide] | < 100 | > 300 | > 300 |
| COc1cc2nccc(Oc3ccc(NC(=O)c4c(C)nc(O)c(-c5ccc(F)cc5)c4O)cc3F)c2nc1OC [Compound 443, N-[4-[(6,7-dimethoxy-1,5-naphthyridin-4-yl)oxy]-3-fluorophenyl]-5-(4-fluorophenyl)-4,6-dihydroxy-2-methylpyridine-3-carboxamide] | 100 to 300 | < 100 | > 300 |
| COc1cnc2c(Oc3ccc(NC(=O)c4c(C)ncc(-c5ccc(F)cc5)c4O)cc3F)ccnc2c1 [Compound 80, N-[3-Fluoro-4-[(7-methoxy-1,5-naphthyridin-4-yl)oxy]phenyl]-5-(4-fluorophenyl)-4-hydroxy-2-methylpyridine-3-carboxamide] | < 100 | < 100 | < 100 |
| CCc1cc2nccc(Oc3ccc(NC(=O)c4cnc(C)c(-c5ccc(F)cc5C)c4O)cc3F)c2nc1OC [Compound 421, N-[4-[(7-ethyl-6-methoxy-1,5-naphthyridin-4-yl)oxy]-3-fluorophenyl]-5-(4-fluoro-2-methylphenyl)-4-hydroxy-6-methylpyridine-3-carboxamide] | < 100 | > 300 | < 100 |
| CCn1cc(-c2ccc(F)cc2)c(=O)c(C(=O)Nc2ccc(Oc3ccnc4cc(OC)c(OC)nc34)c(F)c2)c1C [Compound 82, N-[4-[(6,7-Dimethoxy-1,5-naphthyridin-4-yl)oxy]-3-fluorophenyl]-1-ethyl-5-(4-fluorophenyl)-2-methyl-4-oxopyridine-3-carboxamide] | < 100 | 100 to 300 | 100 to 300 |
| COc1cc2nccc(Oc3ccc(NC(=O)c4c5n(cc(-c6ccc(F)cc6)c4=O)CCC5)cc3)c2nc1OC [Compound 407, N-[4-[(6,7-dimethoxy-1,5-naphthyridin-4-yl)oxy]phenyl]-6-(4-fluorophenyl)-7-oxo-2,3-dihydro-1H-indolizine-8-carboxamide] | < 100 | 100 to 300 | > 300 |
| COc1cc2nccc(Oc3ccc(NC(=O)c4nc(C)c(C)n(-c5ccc(F)cc5)c4=O)cc3F)c2nc1OC [Compound 95, N-[4-[(6,7-Dimethoxy-1,5-naphthyridin-4-yl)oxy]-3-fluorophenyl]-4-(4-fluorophenyl)-5,6-dimethyl-3-oxopyrazine-2-carboxamide] | < 100 | 100 to 300 | > 300 |
| COc1cc2nccc(Oc3ccc(NC(=O)c4cnc(CO)c(-c5ccc(F)cc5)c4O)cc3F)c2nc1OC [Compound 71, N-[4-[(6,7-Dimethoxy-1,5-naphthyridin-4-yl)oxy]-3-fluorophenyl]-5-(4-fluorophenyl)-4-hydroxy-6-(hydroxymethyl)pyridine-3-carboxamide] | < 100 | < 100 | < 100 |
| COc1ccc2nccc(Oc3ccc(NC(=O)c4ccc(C)n(-c5ccc(F)cc5)c4=O)cc3F)c2n1 [Compound 84, N-[3-Fluoro-4-[(6-methoxy-1,5-naphthyridin-4-yl)oxy]phenyl]-1-(4-fluorophenyl)-6-methyl-2-oxopyridine-3-carboxamide] | < 100 | 100 to 300 | < 100 |
